Columns and labels:
Assay in all cases: 3' UTR reporter interaction score (median-centred robust z-score of log2 firefly/Renilla activity); higher = less repression of the 3' UTR reporter
Conditions in all cases: HEK293T; 48 h
[1] = system: BRCA2
Outline: (§1)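 HEK293T cells were seeded at 10,000 per well in 96-well plates and co-transfected with DharmaFECT Duo, using 100 ng of a firefly luc2P reporter carrying the gene's 3' UTR, 20 ng of Renilla pRL-TK control and 2.5 pmol of miRNA mimic. Both luciferase activities were measured 48 h after transfection. The interaction score is the log-transformed firefly/Renilla ratio, converted to a per-plate robust z-score from the median and median absolute deviation and then median-centred per miRNA, with more negative values indicating interaction. Scores were averaged across at least two independent screens.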

[2] = system: EZH2
Outline: as §1

[3] = system: FBXW7
Outline: as §1

[4] = system: HRAS
Outline: as §1

[5] = system: MYB
Outline: as §1

[6] = system: MYCN
Outline: as §1

[7] = system: MYC
Outline: as §1

[8] = system: MYT1L
Outline: as §1

[9] = system: NOTCH1
Outline: as §1

[10] = system: PHF6
Outline: as §1

[11] = system: PHOX2B
Outline: as §1

[12] = system: RB1
Outline: as §1

[13] = system: TP53
Outline: as §1

[14] = system: ZEB2
Outline: as §1

Sequence	3' UTR reporter interaction score [1]	3' UTR reporter interaction score [2]	3' UTR reporter interaction score [3]	3' UTR reporter interaction score [4]	3' UTR reporter interaction score [5]	3' UTR reporter interaction score [6]	3' UTR reporter interaction score [7]	3' UTR reporter interaction score [8]	3' UTR reporter interaction score [9]	3' UTR reporter interaction score [10]	3' UTR reporter interaction score [11]	3' UTR reporter interaction score [12]	3' UTR reporter interaction score [13]	3' UTR reporter interaction score [14]
AACCAGCACCCCAACUUUGGAC	-0.175	1.33	-7.19	0.0381	-1.09	0.781	0.864	0.0434	-0.388	-2.04	-0.923	-1.29	0.244	1.09
AACCCGUAGAUCCGAACUUGUG	0.951	0.142	-0.349	0.79	0.491	-0.886	0.114	-0.266	-0.555	-0.96	-4.05	0.915	1.86	-1.13
AACCCGUAGAUCCGAUCUUGUG	0.969	-0.241	-0.496	0.465	1.14	0.392	1.06	-0.114	0.552	-0.973	-3.27	-0.24	-0.247	-0.0662
AACGCACUUCCCUUUAGAGUGU	0.843	0.293	0.611	-0.716	-0.0921	0.243	-2.85	1.01	0.0977	-1.36	-0.209	1.02	-0.139	0.153
AACGCGCUUCCCUAUAGAGGG	0.644	1.38	0.0883	-1.1	-0.83	-1.41	-0.143	-0.267	0.382	0.0798	-0.021	0.667	1.12	-0.982
AAGCAGCUGCCUCUGAGGC	-0.823	-1.03	-2.92	-0.819	-1.27	0.924	1.09	-4.53	-0.304	0.632	0.758	0.293	0.187	1.09
AAGCCUGCCCGGCUCCUCGGG	0.422	-0.223	0.255	0.291	0.0778	-0.588	0.642	-0.815	-0.439	-0.0107	0.478	-0.201	-1.82	1.11
AAGCUGCCAGUUGAAGAACUGU	-0.407	-0.11	-0.354	0.475	0.23	-0.291	-0.252	-1.31	1.36	-0.206	0.0996	0.935	-0.365	0.607
AAGGAGCUCACAGUCUAUUGAG	-1.14	-0.897	0.924	0.291	1.45	1.38	-0.238	0.551	-1.13	-0.478	0.65	0.838	-1.32	1.75
AAGUGCUGUCAUAGCUGAGGUC	0.528	-0.608	0.564	0	-0.62	1.22	0.212	-0.819	-0.478	0.918	-0.113	1.65	0.0875	1.38
AAGUGCUUCCUUUUAGAGGGUU	-0.82	-1.25	0.635	-0.113	-0.72	0.896	-0.869	0.457	0.466	1.07	0.633	1.62	-1	0.00821
AAUAAUACAUGGUUGAUCUUU	-0.146	0.433	-0.364	-0.598	0.0772	-0.572	0.609	-0.318	-0.442	1.16	-0.121	-0.0974	-0.77	-1.86
AAUAUUAUACAGUCAACCUCU	-1.63	-0.324	0.854	-0.762	-0.218	1.48	0.0661	0	3.57	-1.02	0.408	-1.29	0.359	0.391
AAUCAUACACGGUUGACCUAUU	-0.246	0.236	0.544	-0.256	0.393	0.277	-0.182	0.0899	-0.221	-0.4	-0.199	-0.342	-0.0204	-1.95
AAUCAUACAGGGACAUCCAGUU	-0.401	1.15	0.98	0.163	0.0607	-0.994	0.273	0.474	-0.77	-0.265	1.38	-0.451	-0.0235	-0.725
AAUCCUUGGAACCUAGGUGUGAGU	0.643	0.207	-0.342	0.739	0.656	0.204	1.33	-4.11	-0.594	0.0671	-0.851	-0.422	-0.232	-0.171
AAUCCUUUGUCCCUGGGUGAGA	0.853	-0.257	0.455	0.171	-0.9	0.972	0.916	-2.16	1.42	-0.0711	-0.304	0.615	-0.735	0.439
AAUGACACGAUCACUCCCGUUGA	-1.49	0.0535	0.139	0.792	-0.032	-0.341	0.235	-0.645	-1.98	-0.214	-0.699	-0.373	0.759	0.878
AAUGGCGCCACUAGGGUUGUGCA	-0.437	-0.534	-0.576	-0.363	0.208	0.439	-0.44	-0.00801	-0.589	0.0523	1.04	-0.957	-0.436	0.407

Sequence	3' UTR reporter interaction score [1]	3' UTR reporter interaction score [2]	3' UTR reporter interaction score [3]	3' UTR reporter interaction score [4]	3' UTR reporter interaction score [5]	3' UTR reporter interaction score [6]	3' UTR reporter interaction score [7]	3' UTR reporter interaction score [8]	3' UTR reporter interaction score [9]	3' UTR reporter interaction score [10]	3' UTR reporter interaction score [11]	3' UTR reporter interaction score [12]	3' UTR reporter interaction score [13]	3' UTR reporter interaction score [14]
AAUUGCACUUUAGCAAUGGUGA	1.07	-0.64	-4.25	-0.0471	-0.332	0.969	0.3	0.317	-0.161	2.86	0.339	1.39	-1.5	-2.8
ACAAAGUGCUUCCCUUUAGAGU	-0.366	-0.0342	0.628	0.332	0.129	-0.183	-0.239	-0.45	0.795	-0.537	1.29	-0.344	-0.415	0.377
ACAAAGUGCUUCCCUUUAGAGUGU	-0.733	-0.507	-0.043	0.36	0.347	-0.406	-0.0807	-0.448	0.486	-0.618	1.18	0.896	-0.281	-0.058
ACAGCAGGCACAGACAGGCAG	-0.408	-1.08	-0.152	-0.306	-0.134	-0.201	-0.0632	-1.17	0.191	1.37	0.072	0.215	-0.292	1.63
ACAGUCUGCUGAGGUUGGAGC	0.137	0.0759	-0.12	-0.732	-0.0786	0.116	-0.486	-0.4	0.0668	0.259	0.189	-1.36	-0.638	1.65
ACAUAGAGGAAAUUCCACGUUU	1.12	0.213	-1.56	-0.449	-0.866	0.704	-0.782	-0.235	0.306	1.27	-1.91	0.821	1.11	-1.25
ACCAUCGACCGUUGAUUGUACC	0.723	0.789	-0.0205	-0.526	0.0907	0.598	-0.128	-2.64	-0.491	1.81	0.0128	-0.388	0.659	0.294
ACCCUAUCAAUAUUGUCUCUGC	-0.211	-0.658	0.326	-0.283	0.329	0.109	0.123	-0.388	-0.0515	0.779	-0.0439	-0.979	-0.169	0.936
ACUAGACUGAAGCUCCUUGAGG	0.363	0.526	-1.12	0.196	0.78	0.903	0.201	0.327	-0.733	-0.216	-2.05	1.2	0.442	-0.765
ACUCAAAACCCUUCAGUGACUU	0.794	0.495	0.994	-0.68	-1.17	-0.913	-0.294	-0.111	0.701	1.5	-0.184	-0.026	1.13	0.456
ACUCAAAAUGGGGGCGCUUUCC	-0.27	0.137	-0.231	0.68	-0.497	-0.623	0.445	0.0549	-0.52	2.12	0.0383	0.824	-0.765	0.347
ACUCCAGCCCCACAGCCUCAGC	-0.443	-0.117	-1.03	0.232	0.784	0.185	-0.755	-0.581	-0.369	-1.69	1.37	0.647	-0.602	-0.519
ACUCCAUUUGUUUUGAUGAUGGA	-0.329	-0.0207	-0.453	-0.269	-0.2	0.165	-0.0596	-0.15	-0.518	0.594	0.953	-0.0878	0.239	0.912
ACUGCAGUGAAGGCACUUGU	0.0527	-0.638	-0.112	0.389	0.157	0.762	0.291	-0.459	0.45	-0.789	-0.6	-0.0483	-0.642	-0.791
ACUGCCCUAAGUGCUCCUUCU	-0.325	0.0537	0.408	-0.229	-0.35	1.21	0.276	0.161	-0.46	-0.374	0.63	-0.147	0.48	-0.687
ACUGGGGGCUUUCGGGCUCUGCGU	0.135	-0.722	0.537	-0.439	0.119	-0.18	-0.444	0.0192	0.864	2.06	-0.685	0.988	0.587	1.01
ACUUACAGACAAGAGCCUUGCUC	0.948	-1.69	1.72	1.57	-2.25	-0.0923	0.117	-1.75	0.216	-1.11	1.47	-0.353	0.219	-0.165
ACUUCACCUGGUCCACUAGCCGU	-0.412	-0.456	-2.1	-0.736	0.743	0.0552	-0.039	1.42	0.897	0.576	-0.0718	1.16	-0.237	0.694
ACUUGGGCACUGAAACAAUGUCC	-0.973	-1.19	-0.0493	-0.00106	-0.103	0.382	0.112	0.0827	-4.15	1.39	0.564	0.0718	-1.34	1.78

From the supplement of paper PMC5844555
